Here are results for six molecules from PMC7414031, “Correlation between hemolytic activity, cytotoxicity and systemic in vivo toxicity of synthetic antimicrobial peptides” (Scientific Reports, 2020).

Converted amounts (≈) assume the structure as drawn. Square brackets hold non-standard residues; d marks the D form. Peptide text beside a SMILES is read from it. N(1-naphthylmethyl)Gly = O=C(O)CNCc1cccc2ccccc12; Nphe = O=C(O)CNCc1ccccc1; NBuGly = CCCCNCC(=O)O A value given as a limit tells only on which side of the number the result lay.

Data set [1] is described as follows: in vitro. The note with it: human. In kind it is cell-based, human. The essentials:
(§1)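 Washed heparinized erythrocytes (~5 × 10^8 RBC/mL in PBS) incubated 1 h at 37 °C with peptides in serial 1:1 dilutions (150 to 1.2 µM final). Haemoglobin release read at 405 nm in supernatant; % haemolysis relative to 1% Triton X-100 (100%) and PBS diluent (0%).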

The subject of data set [2] is human erythrocytes. Kind of data set: in vitro. It is filed as cell-based. The note with it: for IC10 haemolysis: human erythrocytes; for IC50: red cells of human. The essentials:
as §1

A short description of data set [3]: in vitro. The note with it: dog. In kind it is cell-based, dog. The essentials: as §1
The subject of the next data set is canine erythrocytes. Kind of data set: in vitro. It is filed as cell-based, dog. As to conditions: for IC10 haemolysis: canine erythrocytes; for IC50: red cells of canine. The essentials:
as §1

A short description of data set [4]: in vitro. The note with it: Sprague-Dawley, rat. In kind it is cell-based, rat (Sprague–Dawley). The essentials: as §1
The next data set concerns rat erythrocytes. Kind of data set: in vitro. It is filed as cell-based, rat (Sprague–Dawley). As to conditions: for IC10 haemolysis: rat erythrocytes; for IC50: red cells of rat. The essentials:
as §1

Data set [5] is described as follows: in vitro. In kind it is cell-based, bovine. The note with it: bovine. The essentials: as §1
In a further data set the test system is bovine erythrocytes. Kind of data set: in vitro. The note with it: bovine erythrocytes. In kind it is cell-based. The essentials:
as §1

Another data set deals with HaCaT cells. In kind it is cell-based, human. The note with it: 1 h. Here is the method:
(§2) An immortalised human keratinocyte (HaCaT) cell line (Gift from David Gram Naym at Bispebjerg Hospital, Denmark), a human liver cancer cell line (HepG2; ATCC HB-8065) and a human epithelial cervical cancer cell line (HeLa; ATCC CCL-2) were cultured to ∼90% confluence after 21–25 h of growth under standard conditions (5% CO2 at 37 °C). Cells were cultured in Dulbecco’s Modified Eagle’s Medium supplemented with 10% (v/v) fetal bovine serum (FBS). All culture media were supplemented with penicillin (100 IU/mL) and streptomycin (100 μg/mL). All cell media and supplements were obtained from Sigma-Aldrich (St. Louis, MO, United States). The 96-well plates were supplied by Corning Costar (Sigma-Aldrich, Brøndby, Denmark). Cell viability assessment was performed on cell monolayers grown to ∼90% confluence in 96-well plates by using the MTS/PMS assay as previously described. Briefly, the adhered cells were washed with PBS solution (37 °C) (ThermoFisher Scientific, Roskilde) and exposed for 1 h at 37 °C to 100 μL of peptides dissolved in the medium also used for culturing of the cell line (at concentrations in the range 0–1,000 μg/mL). The cells were subsequently washed twice with 37 °C PBS and then 100 μL of an MTS/PMS solution in media, consisting of 240 μg/mL MTS (Promega, Madison, WI, United States) and 2.4 mg/mL PMS (Promega, Madison, WI, United States), was added to the cells, which then were incubated for 1 h at 37 °C protected from light. A plate reader (SpectraMax i3X; Molecular devices, San Jose, CA) was used to measure the absorbance at 492 nm. The relative viability was calculated by using 0.2% (w/v) sodium dodecyl sulfate (SDS) as the positive control, while cells exposed to medium without test compound were used as the negative control.

For the next data set, the system named is HeLa cells. It is filed as cell-based, human. The note with it: 1 h. How it is done: as §2
Data set [6] has as its system Staphylococcus pseudintermedius. As to conditions: cited from earlier work; for S.p. MIC: Staphylococcus pseudintermedius, Table S5, in µM.
Another data set relates to Staphylococcus aureus. Also noted: method as in PMID 30842436. As to conditions: cited from earlier work.
Another data set has as its system Pseudomonas aeruginosa. Also noted: method as in PMID 30842436. The note with it: cited from earlier work.
For data set [7], the system named is human erythrocytes. As to conditions: cited from earlier work.

`CC(C)C[C@H](NC(=O)[C@H](CCCCN)NC(=O)[C@@H](N)CCCCN)C(=O)N[C@@H](CCCCN)C(=O)N[C@@H](Cc1ccc2ccccc2c1)C(=O)N[C@@H](Cc1ccccc1)C(=O)N[C@@H](Cc1ccc2ccccc2c1)C(N)=O` [Compound 1, Lys-Lys-Leu-Lys-(2-Nal)Ala-Phe-(2-Nal-)Ala] (HELM PEPTIDE1{K.K.L.K.[O=C([C@H](Cc1ccc2ccccc2c1)N[*:1])[*:2]].F.[O=C([C@H](Cc1ccc2ccccc2c1)N[*:1])[*:2]].[am]}$$$$V2.0): the hemolysis at 1 h, 150 µM was below 8% in the data set “in vitro [1]”, 19.7% in “in vitro [3]”, below 8% in “in vitro [4]” and 32.5% in the data set “in vitro [5]”. The IC10 haemolysis in the data set on human erythrocytes [2] is above 150 µM; in the data set with canine erythrocytes it was 34.2 µM; with rat erythrocytes, above 150 µM; in the data set with bovine erythrocytes, 45.1 µM. For the same molecule, the concentration for half-maximal inhibition (IC50) in the data set with human erythrocytes [2] was above 150 µM; with canine erythrocytes, above 150 µM; with rat erythrocytes, above 150 µM; in the data set on HaCaT cells, 654 µM; in the data set with HeLa cells it was 462 µM. Moreover, in [6], the “S.p. MIC” value is given as 7.6 µM. Besides, the “MIC against Staphylococcus pseudintermedius” value in data set [6] is reported as 8 µg/mL (≈ 7.57 µM). Besides, the “MIC against Staphylococcus aureus” value in the data set on Staphylococcus aureus is reported as 16 µg/mL (≈ 15.1 µM). Further, in the data set with Pseudomonas aeruginosa, the “MIC against Pseudomonas aeruginosa” value was 32 µg/mL (≈ 30.3 µM).
Turning to `CC(C)C[C@H](NC(=O)[C@H](CCCCN)NC(=O)[C@@H](N)CCCCN)C(=O)N[C@@H](CCCCN)C(=O)N[C@@H](Cc1cccc2ccccc12)C(=O)N[C@@H](Cc1ccccc1)C(=O)N[C@@H](Cc1cccc2ccccc12)C(N)=O` [Compound 6, Lys-Lys-Leu-Lys-(1-Nal)Ala-Phe-(1-Nal)Ala] (HELM PEPTIDE1{K.K.L.K.[O=C([C@H](Cc1cccc2ccccc12)N[*:1])[*:2]].F.[O=C([C@H](Cc1cccc2ccccc12)N[*:1])[*:2]].[am]}$$$$V2.0; N-terminus assumed), the hemolysis at 1 h, 150 µM was 42.7% in “in vitro [1]”, 101% in “in vitro [3]”, 18.2% in the data set “in vitro [4]” and 39.9% in “in vitro [5]”. Moreover, the IC10 haemolysis in the data set with human erythrocytes [2] was found to be 55.6 µM; in the data set on canine erythrocytes, 12.2 µM; in the data set on rat erythrocytes, 120.5 µM; in the data set with bovine erythrocytes it was 23.6 µM. The half-inhibitory concentration (IC50) was above 150 µM in the data set with human erythrocytes [2], 37 µM in the data set with canine erythrocytes and above 150 µM with rat erythrocytes. Further, the “MIC against Staphylococcus pseudintermedius” value in data set [6] is recorded as 8 µg/mL (≈ 7.57 µM). The “MIC against Staphylococcus aureus” value in the data set on Staphylococcus aureus was 32 µg/mL (≈ 30.3 µM). In the data set with Pseudomonas aeruginosa, the “MIC against Pseudomonas aeruginosa” value is reported as 8 µg/mL (≈ 7.57 µM). Further, the “Previously reported haemolytic activity against human erythrocytes (in words)” value (“Previously reported haemolytic activity” below) in the data set on human erythrocytes [7] was “high in vitro haemolytic activity”.
Turning to `CC(C)C[C@@H](NC(=O)[C@H](CCCCN)NC(=O)[C@@H](Cc1cccc2ccccc12)NC(=O)[C@@H](Cc1ccccc1)NC(=O)[C@H](N)Cc1cccc2ccccc12)C(=O)N[C@@H](CCCCN)C(=O)N[C@@H](CCCCN)C(N)=O` [Compound 8, (1-Nal)Ala-Phe-(1-Nal)Ala-Lys-Leu-Lys-Lys] (HELM PEPTIDE1{[N[C@H](Cc1cccc2ccccc12)C(=O)[*:2]].[dF].[O=C([C@@H](Cc1cccc2ccccc12)N[*:1])[*:2]].K.[dL].K.K.[am]}$$$$V2.0), the hemolysis at 1 h, 150 µM in “in vitro [1]” was 34.3%; in “in vitro [3]”, 25.8%; in the data set “in vitro [4]”, below 8%; in “in vitro [5]”, below 8%. Moreover, the IC10 haemolysis with human erythrocytes [2] was 57.0 µM; in the data set with canine erythrocytes, 66.0 µM; in the data set on rat erythrocytes, above 150 µM. The IC50 in the data set with human erythrocytes [2], in the data set with canine erythrocytes and in the data set with rat erythrocytes was above 150 µM throughout. Besides, in data set [6], the “MIC against Staphylococcus pseudintermedius” value was 16 µg/mL (≈ 15.1 µM). Also, the “MIC against Staphylococcus aureus” value in the data set with Staphylococcus aureus is 32 to 64 µg/mL. Also, the “MIC against Pseudomonas aeruginosa” value in the data set with Pseudomonas aeruginosa was above 64 µg/mL. The “Previously reported haemolytic activity” value with human erythrocytes [7] is given as “no haemolytic activity”.
With `CC(C)C[C@@H](NC(=O)[C@@H](Cc1cccc2ccccc12)NC(=O)[C@@H](Cc1ccccc1)NC(=O)[C@H](N)Cc1cccc2ccccc12)C(=O)N[C@@H](CCCCN)C(=O)N[C@@H](CCCCN)C(=O)N[C@@H](CCCCN)C(N)=O` [Compound 9, (1-Nal)Ala-Phe-(1-Nal)Ala-Leu-Lys-Lys-Lys] (HELM PEPTIDE1{[N[C@H](Cc1cccc2ccccc12)C(=O)[*:2]].[dF].[O=C([C@@H](Cc1cccc2ccccc12)N[*:1])[*:2]].[dL].K.K.K.[am]}$$$$V2.0), the hemolysis at 1 h, 150 µM in “in vitro [1]” was 30.8%; in the data set “in vitro [3]” it was 25.5%; in the data set “in vitro [4]”, below 8%; in “in vitro [5]”, below 8%. Further, the IC10 haemolysis was 104.1 µM in the data set with human erythrocytes [2], 65.0 µM with canine erythrocytes and above 150 µM in the data set on rat erythrocytes. Also, the concentration for half-maximal inhibition (IC50) in the data set with human erythrocytes [2], in the data set with canine erythrocytes and with rat erythrocytes was above 150 µM each time. Besides, the “MIC against Staphylococcus pseudintermedius” value in data set [6] is reported as 16 µg/mL (≈ 15.1 µM). Also, the “MIC against Staphylococcus aureus” value with Staphylococcus aureus is reported as 32 µg/mL (≈ 30.3 µM). Moreover, the “MIC against Pseudomonas aeruginosa” value with Pseudomonas aeruginosa is 32 µg/mL (≈ 30.3 µM). Also, the “Previously reported haemolytic activity” value in the data set on human erythrocytes [7] is “no haemolytic activity”.
As to `CCCCN(CC(=O)N(CC(=O)N(CC(=O)N(CC(N)=O)Cc1cccc2ccccc12)Cc1ccccc1)Cc1cccc2ccccc12)C(=O)[C@H](CCCCN)NC(=O)[C@H](CCCCN)NC(=O)[C@@H](N)CCCCN` [Compound 15, Lys-Lys-Lys-(N-Bu)Gly-(N1-Nal)Gly-(N-Phe)Gly-(N1-Nal)Gly] (H-KKK[NBuGly][N(1-naphthylmethyl)Gly][Nphe][N(1-naphthylmethyl)Gly]-NH2), the hemolysis at 1 h, 150 µM in “in vitro [1]” is 94.2%; in the data set “in vitro [3]” it was 87.1%; in the data set “in vitro [4]”, 99.5%; in “in vitro [5]”, below 8%. Moreover, the “Haemolysis at 80 µM (in words)” value in the data set with human erythrocytes [2], in the data set on canine erythrocytes and in the data set with rat erythrocytes was “near total haemolysis” each time. Moreover, the values for the IC10 haemolysis in the data set on human erythrocytes [2], in the data set with canine erythrocytes and in the data set with rat erythrocytes were 8.4 µM, 11.6 µM and 35.61 µM, respectively. Also, the IC50 in the data set with human erythrocytes [2] was found to be 41.7 µM; with canine erythrocytes it was 65.7 µM; in the data set with rat erythrocytes it was 47.6 µM; with HaCaT cells, 297 µM; in the data set on HeLa cells it was 394 µM. Further, the “S.p. MIC” value in data set [6] was 3.8 µM. Besides, the “MIC against Staphylococcus pseudintermedius” value in [6] is recorded as 4 µg/mL (≈ 3.79 µM). In addition, the “MIC against Staphylococcus aureus” value in the data set with Staphylococcus aureus was 16 µg/mL (≈ 15.1 µM). Further, in the data set with Pseudomonas aeruginosa, the “MIC against Pseudomonas aeruginosa” value is reported as 32 µg/mL (≈ 30.3 µM).
Consider `CCCC[C@H](NC(=O)[C@H](CCCCN)NC(=O)[C@H](CCCCN)NC(=O)[C@@H](N)CCCCN)C(=O)N[C@@H](Cc1ccc2ccccc2c1)C(=O)N[C@@H](Cc1ccccc1)C(=O)N[C@@H](Cc1ccc2ccccc2c1)C(N)=O` [Compound 18, Lys-Lys-Lys-Nle-(2-Nal)Ala-Phe-(2-Nal)Ala] (HELM PEPTIDE1{K.K.K.[Nle].[O=C([C@H](Cc1ccc2ccccc2c1)N[*:1])[*:2]].F.[O=C([C@H](Cc1ccc2ccccc2c1)N[*:1])[*:2]].[am]}$$$$V2.0), for which the hemolysis at 1 h, 150 µM is 58.8% in the data set “in vitro [1]”, 101% in “in vitro [3]”, 98.6% in “in vitro [4]” and below 8% in “in vitro [5]”. In addition, the “Haemolysis at 80 µM (in words)” value in the data set with human erythrocytes [2], in the data set on canine erythrocytes and in the data set with rat erythrocytes was “near total haemolysis” in each case. The IC10 haemolysis in the data set on human erythrocytes [2] amounted to 18.7 µM; with canine erythrocytes, 21.4 µM; in the data set with rat erythrocytes, 64.4 µM. In addition, the IC50 turned out to be 95.6 µM with human erythrocytes [2], 42.7 µM in the data set on canine erythrocytes and 87.8 µM with rat erythrocytes. In addition, the “MIC against Staphylococcus pseudintermedius” value in data set [6] is 2 to 4 µg/mL. The “MIC against Staphylococcus aureus” value with Staphylococcus aureus is 32 to 64 µg/mL. In the data set with Pseudomonas aeruginosa, the “MIC against Pseudomonas aeruginosa” value is 8 µg/mL (≈ 7.57 µM). For the same molecule, the “Previously reported haemolytic activity” value with human erythrocytes [7] is “high in vitro haemolytic activity”.
